From patent US20050142204A1 (priority 2001, published 2005)

How the values were obtained:
[1] = Solubility of triclosan; assay type: physicochemical
[2] = cited from earlier work
[3] = topical and oral; Bhargava & Leonard 1996; cited from earlier work
[4] = tested on: malaria parasites; details: Surolia 2001, cited from earlier work
[5] = tested on: fatty acid synthesis in Plasmodium falciparum; details: cited from earlier work
[6] = human, in vivo, 552 mg
Description: Four volunteers were invited randomly to take part in the trial. The volunteers were in a rested and fasted state when the trial began. A single dose of 552 mg (two soft gelatine capsules) was administered and blood samples were drawn 15 times over 36 hours.
Quantitative analysis of the blood samples was conducted using an HPLC method developed and validated at the Research Institute for Industrial Pharmacy. Results of the analysis were evaluated statistically and values for AUC, Cmax and tmax were obtained.
A) Chromatographic Condition: • Analytical instrument: HP1050 series HPLC with a pump, autosampler, UV detector and Chemstation Rev.
B) Sample Preparation with enzymatic hydrolysis: • 1. Pipet 1 ml of plasma into a 5 ml siliconised glass test tube. • 2. Add 1 ml of 0.2 M sodium acetate-acetic acid buffer, pH 5.0. • 3. […] Vortex mix for 10 seconds, seal and incubate at 40° C. for 12 hours. • 5. Add 0.5 ml of the internal standard solution and centrifuge at 14000 rpm (4900 RCF) for 10 minutes before applying to the SPE columns.
C) Internal Standard Solution: • 1. Weight approximately 5 mg of acenaphthene accurately and dissolve in 250 ml of solvent. • 2. Add 0.5 ml of this solution to all standards and samples.
D) Standard Solution: • 1. […] Make further dilutions of 5 ml to 100 ml and 10 ml to 50 ml in water to obtain 80, 16- and 4.0 μg/ml stock solutions.
3. […]

Oc1cc(Cl)ccc1Oc1ccc(Cl)cc1Cl [triclosan]
solubility in oils [1]: very soluble in oils | solubility in water [2]: very low solubility in water | safety in toxicity studies [3]: safe topically as well as orally | activity against malaria parasites [4]: active against malaria parasites | effective dose ([4]; malaria): 28 to 38 mg/kg | concentration sufficient for 50% inhibition of fatty acid synthesis ([5]; Surolia and Surolia (2001:168), printed in brackets beside the μM value): 580 ng/mL | IC50 ([5]; read-out: concentration sufficient for 50% inhibition of fatty acid synthesis, Surolia and Surolia (2001:168)): 3 µM | bioavailability [6]: good in three of the four volunteers
